Source: ChEMBL document CHEMBL1649134, “Occurrence of efflux mechanism and cephalosporinase variant in a population of Enterobacter aerogenes and Klebsiella pneumoniae isolates producing extended-spectrum beta-lactamases” (2009)
≈ marks a conversion by molar mass, not a printed value. Calls of active or inactive are those of the source. No cut-off for these calls is given here. Peptide text beside a SMILES is read from it. * marks the point of attachment. βNA = c1ccc2cc(N*)ccc2c1

Experiments:
Klebsiella aerogenes [1] = experiment: Inhibition of multidrug resistance efflux pump in Enterobacter aerogenes isolate 6 assessed as increase in intracellular [14C]chloramphenicol accumulation relative to untreated control; assay type: cell-based
Klebsiella aerogenes [2] = experiment: Inhibition of multidrug resistance efflux pump in Enterobacter aerogenes isolate 13 assessed as increase in intracellular [14C]chloramphenicol accumulation relative to untreated control; assay type: cell-based
Klebsiella pneumoniae [3] = experiment: Inhibition of multidrug resistance efflux pump in Klebsiella pneumoniae isolate 13 assessed as increase in intracellular [14C]chloramphenicol accumulation relative to untreated control
Klebsiella pneumoniae [4] = experiment: Inhibition of multidrug resistance efflux pump in Klebsiella pneumoniae isolate 14 assessed as increase in intracellular [14C]chloramphenicol accumulation relative to untreated control
Klebsiella aerogenes [5] = experiment: Inhibition of multidrug resistance efflux pump in Enterobacter aerogenes isolate 17 assessed as increase in intracellular [14C]chloramphenicol accumulation relative to untreated control; assay type: cell-based
Escherichia coli [6] = experiment: microbe, parasite or virus in culture; details: DH5[alpha]
Description: Antimicrobial activity against multidrug resistant Escherichia coli DH5[alpha] harboring pDrive plasmid expressing ampC gene by broth dilution method

Escherichia coli [7] = experiment: microbe, parasite or virus in culture; details: DH5[alpha]; remark: listed apart in the source
Description: Antimicrobial activity against multidrug resistant Escherichia coli DH5[alpha] by broth dilution method

Klebsiella aerogenes [8] = experiment: Antimicrobial activity against multidrug resistant Enterobacter aerogenes isolate 16 by broth dilution method; assay type: functional
Klebsiella aerogenes [9] = experiment: Antimicrobial activity against multidrug resistant Enterobacter aerogenes isolate 10 by broth dilution method; assay type: functional
Klebsiella aerogenes [10] = experiment: Antimicrobial activity against multidrug resistant Enterobacter aerogenes isolate 2 by broth dilution method; assay type: functional
Klebsiella aerogenes [11] = experiment: Antimicrobial activity against multidrug resistant Enterobacter aerogenes isolate 27 by broth dilution method; assay type: functional
Klebsiella pneumoniae [12] = experiment: Antimicrobial activity against multidrug resistant Klebsiella pneumoniae isolate 16 by broth dilution method; assay type: functional
Klebsiella aerogenes [13] = experiment: Antimicrobial activity against multidrug resistant Enterobacter aerogenes isolate 22 by broth dilution method; assay type: functional
Klebsiella pneumoniae [14] = experiment: Antimicrobial activity against multidrug resistant Klebsiella pneumoniae ATCC 11296 by broth dilution method; assay type: functional
Klebsiella aerogenes [15] = experiment: Antimicrobial activity against multidrug resistant Enterobacter aerogenes isolate 24 by broth dilution method; assay type: functional
Klebsiella aerogenes [16] = experiment: Antimicrobial activity against multidrug resistant Enterobacter aerogenes ATCC 15038 harboring pDrive plasmid expressing ampC gene by broth dilution method; assay type: functional
Klebsiella aerogenes [17] = experiment: Antimicrobial activity against multidrug resistant Enterobacter aerogenes isolate 20 by broth dilution method; assay type: functional
Klebsiella pneumoniae [18] = experiment: Antimicrobial activity against multidrug resistant Klebsiella pneumoniae isolate 15 by broth dilution method; assay type: functional
Klebsiella aerogenes [19] = experiment: Antimicrobial activity against multidrug resistant Enterobacter aerogenes ATCC 15038 by broth dilution method; assay type: functional
Klebsiella aerogenes [20] = experiment: Antimicrobial activity against multidrug resistant Enterobacter aerogenes isolate 11 by broth dilution method; assay type: functional
Klebsiella pneumoniae [21] = experiment: Antimicrobial activity against multidrug resistant Klebsiella pneumoniae isolate 3 by broth dilution method; assay type: functional
Klebsiella aerogenes [22] = experiment: Antimicrobial activity against multidrug resistant Enterobacter aerogenes isolate 5 by broth dilution method; assay type: functional
Klebsiella pneumoniae [23] = experiment: Antimicrobial activity against multidrug resistant Klebsiella pneumoniae isolate 14 by broth dilution method; assay type: functional
Klebsiella pneumoniae [24] = experiment: Antimicrobial activity against multidrug resistant Klebsiella pneumoniae isolate 6 by broth dilution method; assay type: functional
Escherichia coli [25] = experiment: microbe, parasite or virus in culture; details: DH5[alpha]; remark: listed apart in the source
Description: Antimicrobial activity against multidrug resistant Escherichia coli DH5[alpha] harboring pDrive plasmid by broth dilution method

Klebsiella aerogenes [26] = experiment: Antimicrobial activity against multidrug resistant Enterobacter aerogenes isolate 9 by broth dilution method; assay type: functional
Klebsiella aerogenes [27] = experiment: Antimicrobial activity against multidrug resistant Enterobacter aerogenes isolate 15 by broth dilution method; assay type: functional
Klebsiella pneumoniae [28] = experiment: Antimicrobial activity against multidrug resistant Klebsiella pneumoniae isolate 5 by broth dilution method; assay type: functional
Klebsiella aerogenes [29] = experiment: Antimicrobial activity against multidrug resistant Enterobacter aerogenes isolate 8 by broth dilution method; assay type: functional
Escherichia coli [30] = experiment: microbe, parasite or virus in culture; details: ATCC 35218
Description: Antimicrobial activity against multidrug resistant Escherichia coli ATCC 35218 harboring pDrive plasmid by broth dilution method

Klebsiella aerogenes [31] = experiment: Antimicrobial activity against multidrug resistant Enterobacter aerogenes isolate 21 by broth dilution method; assay type: functional
Klebsiella pneumoniae [32] = experiment: Antimicrobial activity against multidrug resistant Klebsiella pneumoniae isolate 12 by broth dilution method; assay type: functional
Escherichia coli [33] = experiment: microbe, parasite or virus in culture; details: ATCC 35218; remark: listed apart in the source
Description: Antimicrobial activity against multidrug resistant Escherichia coli ATCC 35218 harboring pDrive plasmid expressing ampC gene by broth dilution method

Klebsiella aerogenes [34] = experiment: Antimicrobial activity against multidrug resistant Enterobacter aerogenes isolate 25 by broth dilution method; assay type: functional
Klebsiella pneumoniae [35] = experiment: Antimicrobial activity against multidrug resistant Klebsiella pneumoniae isolate 13 by broth dilution method; assay type: functional
Klebsiella aerogenes [36] = experiment: Antimicrobial activity against multidrug resistant Enterobacter aerogenes isolate 14 by broth dilution method; assay type: functional
Klebsiella pneumoniae [37] = experiment: Antimicrobial activity against multidrug resistant Klebsiella pneumoniae isolate 10 by broth dilution method; assay type: functional
Klebsiella aerogenes [38] = experiment: Antimicrobial activity against multidrug resistant Enterobacter aerogenes isolate 6 by broth dilution method; assay type: functional
Klebsiella pneumoniae [39] = experiment: Antimicrobial activity against multidrug resistant Klebsiella pneumoniae isolate 1 by broth dilution method; assay type: functional
Klebsiella aerogenes [40] = experiment: Antimicrobial activity against multidrug resistant Enterobacter aerogenes isolate 12 by broth dilution method; assay type: functional
Klebsiella aerogenes [41] = experiment: Antimicrobial activity against multidrug resistant Enterobacter aerogenes isolate 3 by broth dilution method; assay type: functional
Klebsiella pneumoniae [42] = experiment: Antimicrobial activity against multidrug resistant Klebsiella pneumoniae isolate 9 by broth dilution method; assay type: functional
Escherichia coli [43] = experiment: Antimicrobial activity against multidrug resistant Escherichia coli ATCC 35218 by broth dilution method; assay type: functional
Klebsiella aerogenes [44] = experiment: Antimicrobial activity against multidrug resistant Enterobacter aerogenes isolate 18 by broth dilution method; assay type: functional
Klebsiella aerogenes [45] = experiment: Antimicrobial activity against multidrug resistant Enterobacter aerogenes isolate 7 by broth dilution method; assay type: functional
Klebsiella pneumoniae [46] = experiment: Antimicrobial activity against multidrug resistant Klebsiella pneumoniae isolate 11 by broth dilution method; assay type: functional
Klebsiella aerogenes [47] = experiment: Antimicrobial activity against multidrug resistant Enterobacter aerogenes ATCC 15038 harboring pACM204 plasmid by broth dilution method; assay type: functional
Klebsiella aerogenes [48] = experiment: Antimicrobial activity against multidrug resistant Enterobacter aerogenes isolate 1 by broth dilution method; assay type: functional
Klebsiella pneumoniae [49] = experiment: Antimicrobial activity against multidrug resistant Klebsiella pneumoniae isolate 8 by broth dilution method; assay type: functional
Klebsiella aerogenes [50] = experiment: Antimicrobial activity against multidrug resistant Enterobacter aerogenes isolate 26 by broth dilution method; assay type: functional
Klebsiella aerogenes [51] = experiment: Antimicrobial activity against multidrug resistant Enterobacter aerogenes isolate 23 by broth dilution method; assay type: functional
Klebsiella aerogenes [52] = experiment: Antimicrobial activity against multidrug resistant Enterobacter aerogenes ATCC 15038 harboring pDrive plasmid by broth dilution method; assay type: functional
Klebsiella aerogenes [53] = experiment: Antimicrobial activity against multidrug resistant Enterobacter aerogenes isolate 17 by broth dilution method; assay type: functional
Klebsiella pneumoniae [54] = experiment: Antimicrobial activity against multidrug resistant Klebsiella pneumoniae isolate 4 by broth dilution method; assay type: functional
Klebsiella aerogenes [55] = experiment: Antimicrobial activity against multidrug resistant Enterobacter aerogenes isolate 4 by broth dilution method; assay type: functional
Klebsiella aerogenes [56] = experiment: Antimicrobial activity against multidrug resistant Enterobacter aerogenes isolate 13 by broth dilution method; assay type: functional
Klebsiella aerogenes [57] = experiment: Antimicrobial activity against multidrug resistant Enterobacter aerogenes isolate 19 by broth dilution method; assay type: functional
Escherichia coli [58] = experiment: microbe, parasite or virus in culture; details: DH5[alpha]; remark: listed apart in the source
Description: Antimicrobial activity against multidrug resistant Escherichia coli DH5[alpha] harboring pACM204 plasmid by broth dilution method

Klebsiella pneumoniae [59] = experiment: Antimicrobial activity against multidrug resistant Klebsiella pneumoniae isolate 2 by broth dilution method; assay type: functional
Klebsiella pneumoniae [60] = experiment: Antimicrobial activity against multidrug resistant Klebsiella pneumoniae isolate 7 by broth dilution method; assay type: functional

N=C(N)NCCC[C@H](NC(=O)[C@@H](N)Cc1ccccc1)C(=O)Nc1ccc2ccccc2c1 (H-Phe-Arg-βNA)
inhibition (Klebsiella aerogenes [1]): Active | inhibition (Klebsiella aerogenes [2]): Active | inhibition (Klebsiella pneumoniae [3]): Active | inhibition (Klebsiella pneumoniae [4]): Active | inhibition (Klebsiella aerogenes [5]): Active

N#CC(C#N)=NNc1cccc(Cl)c1 [CARBONYL CYANIDE M-CHLOROPHENYLHYDRAZONE]
fold change (FC) (Klebsiella aerogenes [1]): 2 | fold change (FC) (Klebsiella aerogenes [2]): 2 | fold change (FC) (Klebsiella pneumoniae [3]): 2 | fold change (FC) (Klebsiella pneumoniae [4]): 2 | fold change (FC) (Klebsiella aerogenes [5]): 2

C[C@@H](O)[C@H]1C(=O)N2C(C(=O)O)=C(SCCNC=N)C[C@H]12 [IMIPENEM ANHYDROUS]
MIC (Escherichia coli [6]): 2 µg/mL (≈ 6.68 µM) | MIC (Escherichia coli [7]): 0.25 µg/mL (≈ 0.835 µM) | MIC (Klebsiella aerogenes [8]): 1 µg/mL (≈ 3.34 µM) | MIC (Klebsiella aerogenes [9]): 1 µg/mL (≈ 3.34 µM) | MIC (Klebsiella aerogenes [10]): 1 µg/mL (≈ 3.34 µM) | MIC (Klebsiella aerogenes [11]): 1 µg/mL (≈ 3.34 µM) | MIC (Klebsiella pneumoniae [12]): 0.5 µg/mL (≈ 1.67 µM) | MIC (Klebsiella aerogenes [13]): 1 µg/mL (≈ 3.34 µM) | MIC (Klebsiella pneumoniae [14]): 0.5 µg/mL (≈ 1.67 µM) | MIC (Klebsiella aerogenes [15]): 1 µg/mL (≈ 3.34 µM) | MIC (Klebsiella aerogenes [16]): 2 µg/mL (≈ 6.68 µM) | MIC (Klebsiella aerogenes [17]): 1 µg/mL (≈ 3.34 µM) | MIC (Klebsiella pneumoniae [18]): 1 µg/mL (≈ 3.34 µM) | MIC (Klebsiella aerogenes [19]): 0.25 µg/mL (≈ 0.835 µM) | MIC (Klebsiella aerogenes [20]): 1 µg/mL (≈ 3.34 µM) | MIC (Klebsiella pneumoniae [21]): 2 µg/mL (≈ 6.68 µM) | MIC (Klebsiella aerogenes [22]): 2 µg/mL (≈ 6.68 µM) | MIC (Klebsiella pneumoniae [23]): 0.5 µg/mL (≈ 1.67 µM) | MIC (Klebsiella pneumoniae [24]): 0.5 µg/mL (≈ 1.67 µM) | MIC (Escherichia coli [25]): 0.25 µg/mL (≈ 0.835 µM) | MIC (Klebsiella aerogenes [26]): 1 µg/mL (≈ 3.34 µM) | MIC (Klebsiella aerogenes [27]): 0.5 µg/mL (≈ 1.67 µM) | MIC (Klebsiella pneumoniae [28]): 0.5 µg/mL (≈ 1.67 µM) | MIC (Klebsiella aerogenes [29]): 1 µg/mL (≈ 3.34 µM) | MIC (Escherichia coli [30]): 0.25 µg/mL (≈ 0.835 µM) | MIC (Klebsiella aerogenes [31]): 2 µg/mL (≈ 6.68 µM) | MIC (Klebsiella pneumoniae [32]): 1 µg/mL (≈ 3.34 µM) | MIC (Escherichia coli [33]): 0.5 µg/mL (≈ 1.67 µM) | MIC (Klebsiella aerogenes [34]): 1 µg/mL (≈ 3.34 µM) | MIC (Klebsiella pneumoniae [35]): 1 µg/mL (≈ 3.34 µM) | MIC (Klebsiella aerogenes [36]): 2 µg/mL (≈ 6.68 µM) | MIC (Klebsiella pneumoniae [37]): 0.5 µg/mL (≈ 1.67 µM) | MIC (Klebsiella aerogenes [38]): 1 µg/mL (≈ 3.34 µM) | MIC (Klebsiella pneumoniae [39]): 0.25 µg/mL (≈ 0.835 µM) | MIC (Klebsiella aerogenes [40]): 1 µg/mL (≈ 3.34 µM) | MIC (Klebsiella aerogenes [41]): 1 µg/mL (≈ 3.34 µM) | MIC (Klebsiella pneumoniae [42]): 0.5 µg/mL (≈ 1.67 µM) | MIC (Escherichia coli [43]): 0.125 µg/mL (≈ 0.418 µM) | MIC (Klebsiella aerogenes [44]): 1 µg/mL (≈ 3.34 µM) | MIC (Klebsiella aerogenes [45]): 2 µg/mL (≈ 6.68 µM) | MIC (Klebsiella pneumoniae [46]): 0.5 µg/mL (≈ 1.67 µM) | MIC (Klebsiella aerogenes [47]): 0.5 µg/mL (≈ 1.67 µM) | MIC (Klebsiella aerogenes [48]): 1 µg/mL (≈ 3.34 µM) | MIC (Klebsiella pneumoniae [49]): 0.5 µg/mL (≈ 1.67 µM) | MIC (Klebsiella aerogenes [50]): 1 µg/mL (≈ 3.34 µM) | MIC (Klebsiella aerogenes [51]): 1 µg/mL (≈ 3.34 µM) | MIC (Klebsiella aerogenes [52]): 0.5 µg/mL (≈ 1.67 µM) | MIC (Klebsiella aerogenes [53]): 1 µg/mL (≈ 3.34 µM) | MIC (Klebsiella pneumoniae [54]): 1 µg/mL (≈ 3.34 µM) | MIC (Klebsiella aerogenes [55]): 1 µg/mL (≈ 3.34 µM) | MIC (Klebsiella aerogenes [56]): 2 µg/mL (≈ 6.68 µM) | MIC (Klebsiella aerogenes [57]): 2 µg/mL (≈ 6.68 µM) | MIC (Escherichia coli [58]): 0.5 µg/mL (≈ 1.67 µM) | MIC (Klebsiella pneumoniae [59]): 0.25 µg/mL (≈ 0.835 µM) | MIC (Klebsiella pneumoniae [60]): 0.5 µg/mL (≈ 1.67 µM)
